# The source made the active and inactive calls. No cut-off for these calls is given here.
# Experiments:
# [1] = Neuroprotective activity against H2O2-induced lipid peroxidation in mouse SN-56 cells assessed as increase in MDA level at 1 to 150 uM incubated for 24 hrs by lipid peroxidation MDA assay kit method relative to control; format: functional; details: dose 1-150 µM
# [2] = molecular target: T1, Matrix metalloproteinase-9 (Homo sapiens, UniProt P14780); test: Inhibition of recombinant human MMP9 (107 to 449 residues) using Mca-Pro-Leu-Gly-Leu-Dpa-Ala-Arg-NH2 expressed in Escherichia coli expression system as substrate incubated for 15 mins followed by substrate addition and measured after 2 to 4 hrs by fluorescence based assay
# T1 sequence (P14780 whole entry, the tested form may be a part): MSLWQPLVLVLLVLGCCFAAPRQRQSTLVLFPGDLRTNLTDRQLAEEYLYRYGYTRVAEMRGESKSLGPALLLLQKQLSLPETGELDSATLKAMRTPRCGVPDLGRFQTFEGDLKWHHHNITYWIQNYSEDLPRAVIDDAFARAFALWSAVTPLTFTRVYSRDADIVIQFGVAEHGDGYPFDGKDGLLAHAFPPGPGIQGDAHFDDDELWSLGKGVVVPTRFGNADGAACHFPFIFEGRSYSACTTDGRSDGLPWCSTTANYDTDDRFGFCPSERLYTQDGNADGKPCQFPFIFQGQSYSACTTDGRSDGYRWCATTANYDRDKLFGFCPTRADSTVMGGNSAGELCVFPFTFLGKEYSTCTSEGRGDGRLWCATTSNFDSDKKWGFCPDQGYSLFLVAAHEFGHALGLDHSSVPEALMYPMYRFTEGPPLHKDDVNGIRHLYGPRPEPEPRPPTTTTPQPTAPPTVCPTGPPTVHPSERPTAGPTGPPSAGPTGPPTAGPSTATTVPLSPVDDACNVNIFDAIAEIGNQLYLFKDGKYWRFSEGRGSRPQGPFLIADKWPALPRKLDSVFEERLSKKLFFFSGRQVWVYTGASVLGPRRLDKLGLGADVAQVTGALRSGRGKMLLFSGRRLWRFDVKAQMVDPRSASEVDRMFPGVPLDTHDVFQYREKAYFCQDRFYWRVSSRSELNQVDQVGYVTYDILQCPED
# [3] = Cytotoxicity against mouse SN-56 cells assessed as reduction in cell viability upto 100 uM incubated for 24 hrs by MTT assay; format: cell-based; details: sn-56, 24 h
# Collagenase 3 [4] = molecular target: T2, Collagenase 3 (Homo sapiens, UniProt P45452); test: Inhibition of recombinant human MMP13 (104 to 274 residues) using Mca-Pro-Leu-Gly-Leu-Dpa-Ala-Arg-NH2 expressed in Escherichia coli expression system as substrate incubated for 15 mins followed by substrate addition and measured after 2 to 4 hrs by fluorescence based assay
# SN-56 [5] = test: Neuroprotective activity against H2O2-induced cytotoxicity in mouse SN-56 cells assessed as increase in cell viability at 10 to 100 uM incubated for 24 hrs by MTT assay; format: functional, cell-based; details: dose 10-100 µM
# SN-56 [6] = test: Neuroprotective activity against H2O2-induced lipid peroxidation in mouse SN-56 cells assessed as increase in MDA level incubated for 24 hrs by lipid peroxidation MDA assay kit method; format: functional, cell-based
# [7] = molecular target: T3, 72 kDa type IV collagenase (Homo sapiens, UniProt P08253); test: Inhibition of recombinant human MMP2 (110 to 452 residues) using Mca-Pro-Leu-Gly-Leu-Dpa-Ala-Arg-NH2 expressed in yeast expression system as substrate incubated for 15 mins followed by substrate addition and measured after 2 to 4 hrs by fluorescence based assay
# Target sequence in this assay (P08253 whole entry, the tested form may be a part): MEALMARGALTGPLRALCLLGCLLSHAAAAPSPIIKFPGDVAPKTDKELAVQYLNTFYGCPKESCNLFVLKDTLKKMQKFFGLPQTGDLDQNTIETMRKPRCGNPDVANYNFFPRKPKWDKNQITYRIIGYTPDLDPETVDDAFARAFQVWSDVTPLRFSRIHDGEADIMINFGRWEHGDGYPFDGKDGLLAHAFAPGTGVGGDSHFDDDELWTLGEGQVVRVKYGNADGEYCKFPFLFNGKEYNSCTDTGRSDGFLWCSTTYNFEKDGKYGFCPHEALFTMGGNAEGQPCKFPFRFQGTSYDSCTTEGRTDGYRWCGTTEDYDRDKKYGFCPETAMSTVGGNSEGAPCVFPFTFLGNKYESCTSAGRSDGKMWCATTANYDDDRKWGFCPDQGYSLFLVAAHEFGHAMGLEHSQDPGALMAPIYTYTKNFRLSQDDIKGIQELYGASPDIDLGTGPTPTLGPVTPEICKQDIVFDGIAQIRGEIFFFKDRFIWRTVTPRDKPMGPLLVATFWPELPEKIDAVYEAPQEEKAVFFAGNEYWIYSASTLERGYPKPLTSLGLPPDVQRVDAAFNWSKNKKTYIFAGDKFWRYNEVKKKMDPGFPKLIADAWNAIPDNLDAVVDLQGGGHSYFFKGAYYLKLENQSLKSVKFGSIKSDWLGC
# Neutrophil collagenase [8] = molecular target: T4, Neutrophil collagenase (Homo sapiens, UniProt P22894); test: Inhibition of recombinant human MMP8 (99 to 269 residues) using Mca-Pro-Leu-Gly-Leu-Dpa-Ala-Arg-NH2 expressed in Escherichia coli expression system as substrate incubated for 15 mins followed by substrate addition and measured after 2 to 4 hrs by fluorescence based assay
# Target sequence in this assay (P22894 whole entry, the tested form may be a part): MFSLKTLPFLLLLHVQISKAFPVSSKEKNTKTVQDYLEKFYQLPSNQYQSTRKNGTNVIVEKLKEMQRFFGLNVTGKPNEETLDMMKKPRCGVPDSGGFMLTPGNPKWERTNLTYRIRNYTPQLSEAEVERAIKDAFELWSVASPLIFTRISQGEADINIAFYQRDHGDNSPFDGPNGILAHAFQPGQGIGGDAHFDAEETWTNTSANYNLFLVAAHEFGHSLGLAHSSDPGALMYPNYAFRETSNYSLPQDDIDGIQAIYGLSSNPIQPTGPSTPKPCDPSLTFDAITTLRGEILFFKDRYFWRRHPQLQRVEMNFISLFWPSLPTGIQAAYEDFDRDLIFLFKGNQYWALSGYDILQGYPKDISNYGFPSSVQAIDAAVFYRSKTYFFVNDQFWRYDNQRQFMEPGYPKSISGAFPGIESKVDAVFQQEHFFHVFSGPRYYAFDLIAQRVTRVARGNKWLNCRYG
# [9] = molecular target: T1, Matrix metalloproteinase-9; test: Non-competitive inhibition of recombinant human MMP9 (107 to 449 residues) using Mca-Pro-Leu-Gly-Leu-Dpa-Ala-Arg-NH2 expressed in Escherichia coli expression system as substrate incubated for 15 mins followed by substrate addition and measured after 2 to 4 hrs by fluorescence based assay; details: time 2-4.25 hrs
# Collagenase 3 [10] = molecular target: T2, Collagenase 3; test: Non-competitive inhibition of recombinant human MMP13 (104 to 274 residues) using Mca-Pro-Leu-Gly-Leu-Dpa-Ala-Arg-NH2 expressed in Escherichia coli expression system as substrate by fluorescence based Michaelis-Menten analysis assay; details: time 2-4 hrs
# Neutrophil collagenase [11] = molecular target: T4, Neutrophil collagenase; test: Non-competitive inhibition of recombinant human MMP8 (99 to 269 residues) using Mca-Pro-Leu-Gly-Leu-Dpa-Ala-Arg-NH2 expressed in Escherichia coli expression system as substrate by substrate by fluorescence based Michaelis-Menten analysis; details: time 2-4 hrs
# Target sequence in this assay (P22894 101-467 limits assumed): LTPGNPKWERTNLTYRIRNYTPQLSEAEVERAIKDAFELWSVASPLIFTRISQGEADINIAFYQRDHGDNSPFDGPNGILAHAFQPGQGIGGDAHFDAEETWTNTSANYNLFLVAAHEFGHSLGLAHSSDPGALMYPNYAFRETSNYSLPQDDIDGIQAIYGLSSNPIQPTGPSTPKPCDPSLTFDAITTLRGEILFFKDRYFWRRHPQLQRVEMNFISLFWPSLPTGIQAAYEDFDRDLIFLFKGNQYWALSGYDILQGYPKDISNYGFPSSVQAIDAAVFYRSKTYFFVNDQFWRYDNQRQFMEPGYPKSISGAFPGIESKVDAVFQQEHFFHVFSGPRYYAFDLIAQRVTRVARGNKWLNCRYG
# Neutrophil collagenase [12] = molecular target: T4, Neutrophil collagenase; test: Non-competitive inhibition of recombinant human MMP8 (99 to 269 residues) using Mca-Pro-Leu-Gly-Leu-Dpa-Ala-Arg-NH2 expressed in Escherichia coli expression system as substrate by substrate by fluorescence based Dixon plot; details: time 2-4 hrs
# Target sequence in this assay (P22894 101-467 limits assumed): as above
# Neutrophil collagenase [13] = molecular target: T4, Neutrophil collagenase; test: Non-competitive inhibition of recombinant human MMP8 (99 to 269 residues) using Mca-Pro-Leu-Gly-Leu-Dpa-Ala-Arg-NH2 expressed in Escherichia coli expression system as substrate incubated for 15 mins followed by substrate addition and measured after 2 to 4 hrs by fluorescence based assay; details: time 2-4.25 hrs
# Target sequence in this assay (P22894 101-467 limits assumed): as above
# [14] = molecular target: T3, 72 kDa type IV collagenase; test: Non-competitive inhibition of recombinant human MMP2 (110 to 452 residues) using Mca-Pro-Leu-Gly-Leu-Dpa-Ala-Arg-NH2 expressed in yeast expression system as substrate incubated for 15 mins followed by substrate addition and measured after 2 to 4 hrs by fluorescence based assay; details: time 2-4.25 hrs
# Target sequence in this assay (P08253 110-660 limits assumed): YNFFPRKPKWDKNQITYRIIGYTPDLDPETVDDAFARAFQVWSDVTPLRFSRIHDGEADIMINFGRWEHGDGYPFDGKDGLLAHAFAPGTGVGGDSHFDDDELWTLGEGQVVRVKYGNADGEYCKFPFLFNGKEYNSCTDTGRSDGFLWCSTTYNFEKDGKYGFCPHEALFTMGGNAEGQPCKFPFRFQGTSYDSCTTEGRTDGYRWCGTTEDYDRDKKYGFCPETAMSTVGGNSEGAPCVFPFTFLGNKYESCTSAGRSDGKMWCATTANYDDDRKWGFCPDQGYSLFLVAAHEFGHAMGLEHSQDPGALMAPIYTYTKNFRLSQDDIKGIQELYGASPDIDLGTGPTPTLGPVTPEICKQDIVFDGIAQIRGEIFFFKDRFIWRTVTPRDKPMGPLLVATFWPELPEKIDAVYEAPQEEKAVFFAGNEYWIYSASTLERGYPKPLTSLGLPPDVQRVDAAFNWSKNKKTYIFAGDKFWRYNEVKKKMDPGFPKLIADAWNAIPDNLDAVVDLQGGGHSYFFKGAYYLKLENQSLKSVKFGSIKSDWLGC
# Collagenase 3 [15] = molecular target: T2, Collagenase 3; test: (§1) Non-competitive inhibition of recombinant human MMP13 (104 to 274 residues) using Mca-Pro-Leu-Gly-Leu-Dpa-Ala-Arg-NH2 expressed in Escherichia coli expression system as substrate incubated for 15 mins followed by substrate addition and measured after 2 to 4 hrs by fluorescence based assay; details: time 2-4.25 hrs
# Collagenase 3 [16] = molecular target: T2, Collagenase 3; test: Non-competitive inhibition of recombinant human MMP13 (104 to 274 residues) using Mca-Pro-Leu-Gly-Leu-Dpa-Ala-Arg-NH2 expressed in Escherichia coli expression system as substrate by fluorescence based Dixon plot assay; details: time 2-4 hrs
# [17] = molecular target: T3, 72 kDa type IV collagenase; test: Non-competitive inhibition of recombinant human MMP2 (110 to 452 residues) using Mca-Pro-Leu-Gly-Leu-Dpa-Ala-Arg-NH2 expressed in yeast expression system as substrate by fluorescence based Dixon plot; details: time 2-4 hrs
# Target sequence in this assay (P08253 110-660 limits assumed): as above
# [18] = molecular target: T1, Matrix metalloproteinase-9; test: Non-competitive inhibition of recombinant human MMP9 (107 to 449 residues) using Mca-Pro-Leu-Gly-Leu-Dpa-Ala-Arg-NH2 expressed in Escherichia coli expression system as substrate by substrate by fluorescence based Dixon plot; details: time 2-4 hrs
# [19] = molecular target: T1, Matrix metalloproteinase-9; test: Non-competitive inhibition of recombinant human MMP9 (107 to 449 residues) using Mca-Pro-Leu-Gly-Leu-Dpa-Ala-Arg-NH2 expressed in Escherichia coli expression system as substrate by substrate by fluorescence based Lineweaver-Burk plot; details: time 2-4 hrs
# [20] = molecular target: T3, 72 kDa type IV collagenase; test: Non-competitive inhibition of recombinant human MMP2 (110 to 452 residues) using Mca-Pro-Leu-Gly-Leu-Dpa-Ala-Arg-NH2 expressed in yeast expression system as substrate by fluorescence based Michaelis-Menten analysis; details: time 2-4 hrs
# Target sequence in this assay (P08253 110-660 limits assumed): as above
# Neutrophil collagenase [21] = molecular target: T4, Neutrophil collagenase; test: Non-competitive inhibition of recombinant human MMP8 (99 to 269 residues) using Mca-Pro-Leu-Gly-Leu-Dpa-Ala-Arg-NH2 expressed in Escherichia coli expression system as substrate by substrate by fluorescence based Lineweaver-Burk plot; details: time 2-4 hrs
# Target sequence in this assay (P22894 101-467 limits assumed): as the sequence (P22894 101-467 limits assumed) above
# [22] = molecular target: T3, 72 kDa type IV collagenase; test: Non-competitive inhibition of recombinant human MMP2 (110 to 452 residues) using Mca-Pro-Leu-Gly-Leu-Dpa-Ala-Arg-NH2 expressed in yeast expression system as substrate by fluorescence based Lineweaver-Burk plot; details: time 2-4 hrs
# Target sequence in this assay (P08253 110-660 limits assumed): as the sequence (P08253 110-660 limits assumed) above
# [23] = molecular target: T1, Matrix metalloproteinase-9; test: Non-competitive inhibition of recombinant human MMP9 (107 to 449 residues) using Mca-Pro-Leu-Gly-Leu-Dpa-Ala-Arg-NH2 expressed in Escherichia coli expression system as substrate by substrate by fluorescence based Michaelis-Menten analysis; details: time 2-4 hrs
# Collagenase 3 [24] = molecular target: T2, Collagenase 3; test: Non-competitive inhibition of recombinant human MMP13 (104 to 274 residues) using Mca-Pro-Leu-Gly-Leu-Dpa-Ala-Arg-NH2 expressed in Escherichia coli expression system as substrate by fluorescence based Lineweaver-Burk plot assay; details: time 2-4 hrs
# Collagenase 3 [25] = molecular target: T2, Collagenase 3; test: as §1, with “as substrate at 100 uM incubated for” for “as substrate incubated for”, “based assay relative to control” for “based assay”; details: time 2-4.25 hrs
# SN-56 [26] = test: Neuroprotective activity against H2O2-induced lipid peroxidation in mouse SN-56 cells assessed as increase in MDA level at 100 uM incubated for 24 hrs by lipid peroxidation MDA assay kit method; format: functional, cell-based
Compound,Activity [1] [%],IC50 [2] [µM],Activity [3],IC50 (Collagenase 3 [4]) [µM],Activity (SN-56 [6]),IC50 [7] [µM],IC50 (Neutrophil collagenase [8]) [µM],other results
O=c1[nH]c2ccccc2c2cc(-c3cccs3)cc(Nc3ccc(F)cc3)c12,100,20.1,Non-Toxic,15.8,Dose-dependent effect,6.8,26.5,Activity (SN-56 [5]): Active
Cn1c(=O)c2c(Nc3ccccc3)cc(-c3ccccc3)cc2c2ccccc21,–,> 100,Non-Toxic,> 100,–,> 100,> 100,–
Nc1ccc(-c2cc(Nc3ccccc3)c3c(=O)[nH]c4ccccc4c3c2)cc1,100,28,Non-Toxic,73,Dose-dependent effect,32,47,Activity (SN-56 [5]): Active
COc1ccc(-c2cc(Nc3ccccc3)c3c(=O)[nH]c4ccccc4c3c2)cc1,–,32,Non-Toxic,40,Dose-dependent effect,47,54,–
CCCCNc1cc(-c2ccccc2)cc2c1c(=O)[nH]c1ccccc12,100,99.5,Non-Toxic,60,Dose-dependent effect,56,86,–
Cc1cc(C)cc(Nc2cc(-c3ccco3)cc3c2c(=O)[nH]c2ccccc23)c1,–,86,Non-Toxic,46,–,21.6,60,–
CN(C)c1ccc(Nc2cc(-c3ccccc3)cc3c2c(=O)[nH]c2ccccc23)cc1,–,88,Non-Toxic,40,–,73,84,–
COc1ccc(Nc2cc(-c3ccccc3)cc3c2c(=O)[nH]c2c(OC)c(OC)ccc23)cc1,–,20.5,Non-Toxic,37,–,42,68,–
COc1ccc(Nc2cc(-c3cccs3)cc3c2c(=O)[nH]c2ccccc23)cc1,100,5,Non-Toxic,5.4,Dose-dependent effect,6.05,7,inhibition [9]: Active; Activity (Collagenase 3 [10]): Active; Activity (Neutrophil collagenase [11]): Active; Activity (Neutrophil collagenase [12]): Active; inhibition (Neutrophil collagenase [13]): Active; inhibition [14]: Active; inhibition (Collagenase 3 [15]): Active; Activity (SN-56 [5]): Active; Activity (Collagenase 3 [16]): Active; Activity [17]: Active; Activity [18]: Active; Activity [19]: Active; Activity [20]: Active; Activity (Neutrophil collagenase [21]): Active; Activity [22]: Active; Activity [23]: Active; Activity (Collagenase 3 [24]): Active
Cc1ccc(-c2cc(Nc3ccccc3)c3c(=O)[nH]c4ccccc4c3c2)cc1,–,37.5,Non-Toxic,41,–,84.5,62,–
O=c1[nH]c2ccccc2c2cc(-c3cccs3)cc(Nc3ccccc3)c12,100,16.1,Non-Toxic,15.6,Dose-dependent effect,6.1,18,Activity (SN-56 [5]): Active
Nc1cc(-c2cccs2)cc2c1c(=O)[nH]c1ccccc12,100,> 100,Non-Toxic,> 100,Dose-dependent effect,> 100,> 100,Activity (SN-56 [5]): Active
COc1ccc(Nc2cc(-c3ccccc3)cc3c2c(=O)[nH]c2ccccc23)cc1,100,22,Non-Toxic,16.4,Dose-dependent effect,60,> 100,Activity (SN-56 [5]): Active
CCCCNc1cc(-c2cccs2)cc2c1c(=O)[nH]c1ccccc12,–,> 100,Non-Toxic,–,Dose-dependent effect,38,> 100,inhibition (Collagenase 3 [25]): 54%
O=c1[nH]c2ccccc2c2cc(-c3ccco3)cc(Nc3ccccc3)c12,–,> 100,Non-Toxic,41.7,Dose-dependent effect,25.4,> 100,–
Nc1cc(-c2ccccc2)cc2c1c(=O)[nH]c1ccccc12,–,> 100,Non-Toxic,> 100,–,> 100,> 100,–
O=c1[nH]c2ccccc2c2cc(-c3ccco3)cc(Nc3ccc(F)cc3)c12,–,> 100,Non-Toxic,> 100,–,45.4,> 100,–
COc1ccc(Nc2cc(-c3ccco3)cc3c2c(=O)[nH]c2ccccc23)cc1,–,9,Non-Toxic,15,Dose-dependent effect,9,23,–
Cc1c(C)c2c(c(C)c1O)CCC(C)(C(=O)O)O2 (configuration not stated),–,–,–,–,–,–,–,Activity (SN-56 [26]): Active
O=c1[nH]c2ccccc2c2cc(-c3ccccc3)cc(Nc3ccccc3)c12,–,54,Non-Toxic,42,–,13,69,–
O=c1[nH]c2ccccc2c2cc(-c3ccccc3)cc(Nc3ccc(F)cc3)c12,–,99,Non-Toxic,99,Dose-dependent effect,98,> 100,–
